Data from ChEMBL document CHEMBL1201862, “PubChem BioAssay data set” (2004).
Activity calls are given as the source filed them.

Legend:
[1] = target: T1, Voltage-gated N-type calcium channel alpha-1B subunit/Amyloid beta A4 precursor protein-binding family A member 1 (Homo sapiens, UniProt Q00975+Q02410); format: protein assay
[2] = target: T1, Voltage-gated N-type calcium channel alpha-1B subunit/Amyloid beta A4 precursor protein-binding family A member 1; format: protein assay; remark: listed apart in the source
[3] = target: DNA (cytosine-5)-methyltransferase 1 (Homo sapiens, UniProt P26358); assay: inhibition of DNA methylation by DNMT1 – biochemical, fluorescent molecular beacon, confirmation (AID 602386); format: functional
[4] = A Cell Based Secondary Assay To Explore Cytotoxicity of Compounds that Sensitize Mycobacterium Tuberculosis to Beta-Lactam Antibiotics.; format: functional
[5] = target: T2, Short transient receptor potential channel 4 (Mus musculus, UniProt Q9QUQ5); assay: block of DAMGO-driven TRPC4 calcium entry – cell-based, HEK293 TRPC4/mu-opioid, Fluo-4 calcium, dose response (AID 434942); format: functional;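 also: potency of inhibitors blocking the TRPC4 calcium response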
T2 sequence (Q9QUQ5 whole entry): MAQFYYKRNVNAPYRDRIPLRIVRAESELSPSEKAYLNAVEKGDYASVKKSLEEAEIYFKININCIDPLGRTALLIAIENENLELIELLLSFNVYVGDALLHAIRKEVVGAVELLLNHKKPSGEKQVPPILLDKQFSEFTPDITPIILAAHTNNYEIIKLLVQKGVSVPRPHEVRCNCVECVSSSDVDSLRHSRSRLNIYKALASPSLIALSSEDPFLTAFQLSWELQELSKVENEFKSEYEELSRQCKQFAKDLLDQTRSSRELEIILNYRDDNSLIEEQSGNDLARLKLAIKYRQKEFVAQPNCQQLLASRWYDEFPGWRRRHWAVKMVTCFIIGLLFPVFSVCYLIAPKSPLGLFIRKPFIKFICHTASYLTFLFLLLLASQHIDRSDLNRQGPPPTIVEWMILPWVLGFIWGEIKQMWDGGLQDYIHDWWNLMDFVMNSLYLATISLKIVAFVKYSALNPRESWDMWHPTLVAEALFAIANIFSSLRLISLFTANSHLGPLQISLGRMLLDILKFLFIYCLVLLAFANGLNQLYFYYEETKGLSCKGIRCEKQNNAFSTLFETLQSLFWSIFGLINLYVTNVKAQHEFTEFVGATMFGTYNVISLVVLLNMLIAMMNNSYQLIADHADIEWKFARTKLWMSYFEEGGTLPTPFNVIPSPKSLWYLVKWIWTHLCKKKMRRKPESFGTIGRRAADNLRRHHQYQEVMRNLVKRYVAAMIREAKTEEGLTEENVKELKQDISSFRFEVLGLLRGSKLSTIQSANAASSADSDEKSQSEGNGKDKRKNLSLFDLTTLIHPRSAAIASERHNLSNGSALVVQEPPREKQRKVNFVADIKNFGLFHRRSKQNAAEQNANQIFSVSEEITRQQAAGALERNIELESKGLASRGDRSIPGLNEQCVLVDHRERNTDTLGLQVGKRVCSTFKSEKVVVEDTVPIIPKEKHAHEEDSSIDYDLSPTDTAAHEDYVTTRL

[6] = A cytotoxicity screen of small molecule inhibitors of the PhoP region in Salmonella typhi identified in the primary screen. [Related pubchem assays: 1850, 1864, 1985 ]; format: functional
[7] = target: T3, Microphthalmia-associated transcription factor (Homo sapiens, UniProt O75030); assay: reducers of TRPM1 reporter luminescence, concentration series – cell-based, SK-MEL-5, cherry-picked, set 3, MITF inhibitor project, dose response (AID 493073); format: functional;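 also: SK-MEL-5 melanoma cells with luciferase driven by the MITF target TRPM1 promoter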
T3 sequence (O75030 whole entry): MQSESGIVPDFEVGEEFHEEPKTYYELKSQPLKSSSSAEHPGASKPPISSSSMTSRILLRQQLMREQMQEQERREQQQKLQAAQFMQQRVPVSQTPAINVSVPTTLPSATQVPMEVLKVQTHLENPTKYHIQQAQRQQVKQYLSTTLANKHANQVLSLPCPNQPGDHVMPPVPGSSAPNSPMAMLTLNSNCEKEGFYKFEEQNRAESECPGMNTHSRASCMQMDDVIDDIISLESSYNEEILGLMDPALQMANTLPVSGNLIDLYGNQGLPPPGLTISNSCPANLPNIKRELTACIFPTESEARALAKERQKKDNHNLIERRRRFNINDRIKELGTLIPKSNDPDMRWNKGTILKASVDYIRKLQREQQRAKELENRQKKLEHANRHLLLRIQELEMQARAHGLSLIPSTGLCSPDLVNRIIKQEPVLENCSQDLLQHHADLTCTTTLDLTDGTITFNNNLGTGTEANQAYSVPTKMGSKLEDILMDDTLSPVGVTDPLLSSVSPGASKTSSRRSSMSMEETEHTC

[8] = viability of HCT116 lacking mutant beta-catenin – cell-based, human colon tumor, dose response (AID 1045); format: functional;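 also: HCT116 colon tumor cells with beta catenin knocked out; cells exposed to compound for 60 hours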
[9] = viability of PTEN-deleted HCT116 cells – cell-based, HCT116 PTEN knockout, dose response (AID 1047); format: functional;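 also: HCT116 colon tumor cells with PTEN knocked out; cells exposed to compound for 60 hours before readout; potency for loss of cell viability measured by luminescence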
[10] = target: Neurotensin receptor type 1 (Homo sapiens, UniProt P30989); format: functional;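 also: Image-based confirmatory dose-response assay measuring agonist activity at NTR1; NTR1-expressing U2OS osteosarcoma cells imaged for beta-arrestin GFP spot formation; agonist potency where compounds increase beta-arrestin recruitment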
[11] = target: T4, Orexin/Hypocretin receptor type 1 (Homo sapiens, UniProt O43613); assay: (§1) Fluorescence-based cell-based high throughput dose response assay for antagonists of the orexin 1 receptor (OX1R; HCRTR1). [Related pubchem assays (depositor defined):AID434989, AID435008, AID463079, AID485270, AID492963, AID492964, AID492965, AID493232, AID504717, AID504718]; format: functional
T4 sequence (O43613 whole entry): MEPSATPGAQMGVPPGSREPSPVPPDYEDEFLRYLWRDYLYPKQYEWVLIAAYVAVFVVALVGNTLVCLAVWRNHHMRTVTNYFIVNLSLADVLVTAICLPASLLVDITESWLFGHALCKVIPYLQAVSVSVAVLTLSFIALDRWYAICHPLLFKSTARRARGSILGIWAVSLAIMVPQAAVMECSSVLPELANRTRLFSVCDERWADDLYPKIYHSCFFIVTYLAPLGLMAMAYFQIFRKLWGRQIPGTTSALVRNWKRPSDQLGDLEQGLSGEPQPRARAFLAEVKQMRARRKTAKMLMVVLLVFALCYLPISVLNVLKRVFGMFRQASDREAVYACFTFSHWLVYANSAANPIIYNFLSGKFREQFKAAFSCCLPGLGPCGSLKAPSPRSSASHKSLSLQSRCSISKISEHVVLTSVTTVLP

[12] = target: T4, Orexin/Hypocretin receptor type 1; assay: as §1, with “Homogeneous Time Resolved Fluorescence (HTRF)-based” for “Fluorescence-based”; format: functional
[13] = (§2) Counterscreen for antagonists of the orexin 1 receptor (OX1R; HCRTR1): Fluorescence-based cell-based high throughput dose response assay to identify antagonists of the parental CHO cell line. [Related pubchem assays (depositor defined):AID434989, AID435008, AID463079, AID485270, AID492963, AID492964, AID492965, AID493232, AID504699, AID504701]; format: functional
[14] = test system: CHO-K1; assay: as §2, with “Homogeneous time resolved fluorescence (HTRF)-based” for “Fluorescence-based”, “cell-based” for “cell-based high throughput”, “CHO-K1” for “CHO”; format: functional; conditions: Cricetulus griseus;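 also: potency for inhibition of ATP-stimulated IP1 production as antagonists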
[15] = target: T5, Protein skinhead-1 (Caenorhabditis elegans, UniProt P34707); format: functional
T5 sequence (P34707 whole entry): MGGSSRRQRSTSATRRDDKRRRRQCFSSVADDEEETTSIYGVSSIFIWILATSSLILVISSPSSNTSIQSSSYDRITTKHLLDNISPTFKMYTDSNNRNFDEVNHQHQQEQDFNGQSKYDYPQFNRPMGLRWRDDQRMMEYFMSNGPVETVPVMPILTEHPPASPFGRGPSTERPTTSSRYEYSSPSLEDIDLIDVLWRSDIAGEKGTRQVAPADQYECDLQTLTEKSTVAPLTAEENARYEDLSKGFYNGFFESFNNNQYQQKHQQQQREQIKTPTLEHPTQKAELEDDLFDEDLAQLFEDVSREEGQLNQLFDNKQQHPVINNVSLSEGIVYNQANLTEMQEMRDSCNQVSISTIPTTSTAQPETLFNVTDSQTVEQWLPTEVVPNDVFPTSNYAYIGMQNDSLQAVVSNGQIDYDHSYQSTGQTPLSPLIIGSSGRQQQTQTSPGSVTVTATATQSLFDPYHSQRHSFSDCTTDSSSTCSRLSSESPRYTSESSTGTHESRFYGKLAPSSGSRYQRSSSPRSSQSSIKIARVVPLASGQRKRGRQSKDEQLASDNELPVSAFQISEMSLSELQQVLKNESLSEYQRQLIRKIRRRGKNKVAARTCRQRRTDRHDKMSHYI

[16] = target: DNA damage-inducible transcript 3 protein (Mus musculus, UniProt P35639); format: functional, Cricetulus griseus
DNA damage-inducible transcript 3 protein, sequence (P35639 whole entry): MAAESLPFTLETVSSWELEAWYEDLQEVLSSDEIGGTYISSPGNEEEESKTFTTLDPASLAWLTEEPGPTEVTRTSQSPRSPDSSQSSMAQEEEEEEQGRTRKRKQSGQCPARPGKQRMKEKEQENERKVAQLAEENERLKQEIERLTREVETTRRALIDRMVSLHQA

[17] = test system: HEK293; assay: cells; format: functional, cell-based; conditions: Homo sapiens
[18] = test system: HEK293; assay: NOD2 signaling inhibitors in MDP-stimulated cells, cell-based, uHTS, luminescence (AID 2001); format: functional; conditions: Homo sapiens
[19] = target: Nucleotide-binding oligomerization domain-containing protein 2 (Homo sapiens, UniProt Q9HC29); assay: inhibition of NOD2-driven NF-kB reporter – cell-based, luminescence, uHTS, HEK293 (AID 1566); format: functional
[20] = target: T6, Carboxy-terminal domain RNA polymerase II polypeptide A small phosphatase 1 (Homo sapiens, UniProt Q9GZU7); assay: CTDSP1 inhibitors, concentration-response, biochemical, absorbance readout, ultra-high-throughput screen actives (AID 540297); format: functional
T6 sequence (Q9GZU7 whole entry): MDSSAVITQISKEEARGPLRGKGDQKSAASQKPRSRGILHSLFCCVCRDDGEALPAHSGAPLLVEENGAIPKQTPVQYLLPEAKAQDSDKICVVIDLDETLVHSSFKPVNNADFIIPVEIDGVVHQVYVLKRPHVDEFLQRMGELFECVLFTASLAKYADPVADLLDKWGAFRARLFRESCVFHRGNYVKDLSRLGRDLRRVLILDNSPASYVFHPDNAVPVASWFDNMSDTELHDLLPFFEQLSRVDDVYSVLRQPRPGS

[21] = test system: HEK293; assay: cells; format: functional, cell-based; conditions: Homo sapiens; remark: listed apart in the source
[22] = test system: HEK293; assay: inhibition of NOD1-driven NF-kB reporter – cell-based, luminescence, uHTS, primary screen (AID 1578); format: functional; conditions: Homo sapiens
[23] = test system: HEK293; assay: cells; format: functional, cell-based; conditions: Homo sapiens; remark: listed apart in the source
[24] = target: Eukaryotic translation initiation factor 4H (Homo sapiens, UniProt Q15056); assay: eIF4H binding inhibition – biochemical, uHTS, fluorescence polarization, translation initiation inhibitor project, primary screen (AID 2012)
[25] = target: Polyadenylate-binding protein 1 (Homo sapiens, UniProt P11940); assay: blockers of PABP interaction with poly(A) – biochemical, fluorescence polarization, […] (AID 2014)
Polyadenylate-binding protein 1, sequence (P11940 whole entry): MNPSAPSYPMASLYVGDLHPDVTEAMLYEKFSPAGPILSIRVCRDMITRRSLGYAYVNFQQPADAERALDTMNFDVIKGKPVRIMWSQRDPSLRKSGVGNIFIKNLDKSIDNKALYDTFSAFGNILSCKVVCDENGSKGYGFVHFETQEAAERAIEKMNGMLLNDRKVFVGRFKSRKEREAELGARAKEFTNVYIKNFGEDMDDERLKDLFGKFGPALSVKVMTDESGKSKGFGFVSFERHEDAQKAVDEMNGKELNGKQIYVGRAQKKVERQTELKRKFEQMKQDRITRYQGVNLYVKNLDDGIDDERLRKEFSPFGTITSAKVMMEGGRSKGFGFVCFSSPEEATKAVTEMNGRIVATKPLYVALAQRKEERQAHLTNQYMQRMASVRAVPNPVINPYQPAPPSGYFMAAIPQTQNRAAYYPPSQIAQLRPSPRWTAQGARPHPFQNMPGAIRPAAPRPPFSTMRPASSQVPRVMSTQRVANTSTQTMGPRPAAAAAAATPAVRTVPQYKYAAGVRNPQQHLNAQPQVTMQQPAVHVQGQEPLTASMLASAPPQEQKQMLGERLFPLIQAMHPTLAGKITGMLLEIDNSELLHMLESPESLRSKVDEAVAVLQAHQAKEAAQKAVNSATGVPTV

[26] = cells; format: functional
[27] = target: Large T antigen (Simian virus 40, UniProt P03070); format: functional, Betapolyomavirus macacae;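 also: Confirmatory-stage PubChem screen for compounds that inhibit SV40 T antigen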
Large T antigen, sequence (P03070 whole entry): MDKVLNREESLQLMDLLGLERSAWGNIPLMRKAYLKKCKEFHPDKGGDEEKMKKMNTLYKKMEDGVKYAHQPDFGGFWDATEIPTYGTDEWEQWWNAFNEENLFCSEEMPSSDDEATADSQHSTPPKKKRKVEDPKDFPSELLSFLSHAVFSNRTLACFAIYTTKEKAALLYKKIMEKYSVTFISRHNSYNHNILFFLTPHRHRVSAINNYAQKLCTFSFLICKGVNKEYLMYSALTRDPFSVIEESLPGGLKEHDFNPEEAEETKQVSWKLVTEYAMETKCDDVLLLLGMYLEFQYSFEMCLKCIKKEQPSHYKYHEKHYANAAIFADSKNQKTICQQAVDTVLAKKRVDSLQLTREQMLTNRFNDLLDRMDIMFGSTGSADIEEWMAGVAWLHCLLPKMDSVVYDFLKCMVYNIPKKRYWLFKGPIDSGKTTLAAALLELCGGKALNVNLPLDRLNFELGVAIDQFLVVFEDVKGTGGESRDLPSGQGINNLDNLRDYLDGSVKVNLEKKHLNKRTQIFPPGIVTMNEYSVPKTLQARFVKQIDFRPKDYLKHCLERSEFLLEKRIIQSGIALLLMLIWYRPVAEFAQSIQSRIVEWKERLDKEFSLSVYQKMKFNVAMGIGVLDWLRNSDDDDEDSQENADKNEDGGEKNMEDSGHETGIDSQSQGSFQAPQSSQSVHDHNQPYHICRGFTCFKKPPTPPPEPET

[28] = THP-1 cell cytotoxicity, dose response, cytotoxicity control for non-replicating M. tuberculosis project (AID 489025); format: functional

T1 sequence (Q00975 whole entry): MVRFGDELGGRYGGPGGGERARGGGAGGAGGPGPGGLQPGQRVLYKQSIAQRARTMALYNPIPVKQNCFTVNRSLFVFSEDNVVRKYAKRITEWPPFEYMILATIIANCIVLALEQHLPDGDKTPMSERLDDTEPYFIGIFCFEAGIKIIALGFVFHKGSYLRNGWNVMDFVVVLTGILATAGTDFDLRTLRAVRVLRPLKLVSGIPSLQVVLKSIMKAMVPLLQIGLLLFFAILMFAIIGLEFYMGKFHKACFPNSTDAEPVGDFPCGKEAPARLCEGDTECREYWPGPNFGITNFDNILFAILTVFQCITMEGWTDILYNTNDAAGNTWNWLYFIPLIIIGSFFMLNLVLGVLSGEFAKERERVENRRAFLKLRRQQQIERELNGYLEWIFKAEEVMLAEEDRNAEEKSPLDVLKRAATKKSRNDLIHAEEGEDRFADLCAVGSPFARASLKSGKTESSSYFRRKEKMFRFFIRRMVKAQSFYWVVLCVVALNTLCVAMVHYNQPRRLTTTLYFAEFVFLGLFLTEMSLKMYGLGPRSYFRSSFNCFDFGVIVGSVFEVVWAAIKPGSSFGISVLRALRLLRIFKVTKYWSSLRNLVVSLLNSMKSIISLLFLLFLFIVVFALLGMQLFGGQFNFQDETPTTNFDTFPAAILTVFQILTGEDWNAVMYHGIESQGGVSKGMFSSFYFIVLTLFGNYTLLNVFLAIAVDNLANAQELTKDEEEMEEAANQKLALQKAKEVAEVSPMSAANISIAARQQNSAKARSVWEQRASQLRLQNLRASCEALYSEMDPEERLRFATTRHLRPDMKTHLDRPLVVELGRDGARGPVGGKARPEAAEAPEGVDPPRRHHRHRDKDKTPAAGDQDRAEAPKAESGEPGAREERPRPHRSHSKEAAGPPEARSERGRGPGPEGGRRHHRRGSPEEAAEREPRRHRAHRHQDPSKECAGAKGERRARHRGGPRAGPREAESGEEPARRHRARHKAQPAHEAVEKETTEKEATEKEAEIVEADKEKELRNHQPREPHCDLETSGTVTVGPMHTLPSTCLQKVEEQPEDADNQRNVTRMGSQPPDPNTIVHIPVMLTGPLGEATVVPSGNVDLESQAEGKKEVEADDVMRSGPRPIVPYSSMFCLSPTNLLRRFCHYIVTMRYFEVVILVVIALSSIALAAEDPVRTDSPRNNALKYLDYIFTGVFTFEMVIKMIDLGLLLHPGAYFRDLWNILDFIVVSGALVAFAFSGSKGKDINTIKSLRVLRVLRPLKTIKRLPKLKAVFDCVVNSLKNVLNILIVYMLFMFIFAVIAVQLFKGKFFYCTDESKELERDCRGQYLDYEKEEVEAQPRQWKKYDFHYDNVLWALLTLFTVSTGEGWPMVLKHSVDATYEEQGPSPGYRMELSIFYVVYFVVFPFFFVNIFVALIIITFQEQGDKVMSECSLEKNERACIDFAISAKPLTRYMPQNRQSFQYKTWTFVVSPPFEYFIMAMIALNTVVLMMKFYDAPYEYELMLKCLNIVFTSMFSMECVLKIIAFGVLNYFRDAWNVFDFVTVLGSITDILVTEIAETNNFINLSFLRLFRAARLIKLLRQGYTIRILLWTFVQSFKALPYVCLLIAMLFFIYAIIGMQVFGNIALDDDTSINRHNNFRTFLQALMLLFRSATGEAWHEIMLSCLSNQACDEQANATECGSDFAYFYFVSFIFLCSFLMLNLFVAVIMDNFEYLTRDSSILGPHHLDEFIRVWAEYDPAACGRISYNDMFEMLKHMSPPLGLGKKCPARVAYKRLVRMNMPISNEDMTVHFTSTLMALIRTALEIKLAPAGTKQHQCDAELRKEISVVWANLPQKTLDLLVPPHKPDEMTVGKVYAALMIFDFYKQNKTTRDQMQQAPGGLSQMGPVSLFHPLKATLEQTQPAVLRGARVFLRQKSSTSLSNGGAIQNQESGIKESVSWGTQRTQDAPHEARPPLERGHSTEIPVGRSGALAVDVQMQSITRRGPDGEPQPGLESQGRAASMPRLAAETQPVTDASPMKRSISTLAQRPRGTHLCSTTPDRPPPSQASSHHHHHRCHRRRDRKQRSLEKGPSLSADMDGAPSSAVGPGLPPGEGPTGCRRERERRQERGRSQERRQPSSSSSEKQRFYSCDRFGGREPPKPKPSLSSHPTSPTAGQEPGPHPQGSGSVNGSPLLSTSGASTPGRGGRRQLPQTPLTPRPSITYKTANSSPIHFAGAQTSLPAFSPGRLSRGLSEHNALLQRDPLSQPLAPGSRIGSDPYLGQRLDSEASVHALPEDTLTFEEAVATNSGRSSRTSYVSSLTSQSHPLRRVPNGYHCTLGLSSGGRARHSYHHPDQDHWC
T1 sequence (Q02410 whole entry): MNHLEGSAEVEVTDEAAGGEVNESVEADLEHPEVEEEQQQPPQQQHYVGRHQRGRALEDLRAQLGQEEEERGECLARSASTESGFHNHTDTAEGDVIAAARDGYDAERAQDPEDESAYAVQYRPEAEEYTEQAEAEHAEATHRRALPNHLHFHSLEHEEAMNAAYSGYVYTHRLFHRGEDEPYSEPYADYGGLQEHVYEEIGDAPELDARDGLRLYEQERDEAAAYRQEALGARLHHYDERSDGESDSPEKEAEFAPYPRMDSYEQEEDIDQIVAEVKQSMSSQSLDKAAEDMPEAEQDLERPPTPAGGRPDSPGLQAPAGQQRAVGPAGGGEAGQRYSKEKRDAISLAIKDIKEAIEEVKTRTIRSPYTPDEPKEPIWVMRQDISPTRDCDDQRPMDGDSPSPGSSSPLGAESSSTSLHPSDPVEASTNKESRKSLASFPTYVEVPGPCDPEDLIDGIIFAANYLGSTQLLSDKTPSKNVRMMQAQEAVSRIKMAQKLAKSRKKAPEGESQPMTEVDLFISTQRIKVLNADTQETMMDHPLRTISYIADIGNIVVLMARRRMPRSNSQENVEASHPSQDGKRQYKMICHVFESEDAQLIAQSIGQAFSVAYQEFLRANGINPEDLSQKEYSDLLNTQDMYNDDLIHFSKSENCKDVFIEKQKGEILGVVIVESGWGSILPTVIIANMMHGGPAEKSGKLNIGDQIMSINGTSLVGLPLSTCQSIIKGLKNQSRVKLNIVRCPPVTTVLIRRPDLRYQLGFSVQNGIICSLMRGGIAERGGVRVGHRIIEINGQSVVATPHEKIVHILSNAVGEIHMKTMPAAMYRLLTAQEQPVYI

O=C(CN1C(=O)S/C(=C\c2ccc(-c3cc(C(=O)O)ccc3Cl)o2)C1=O)Nc1ccc2c(c1)OCO2
IC50 [1]: > 50 µM (inactive)
IC50 [2]: > 56.8 µM (not active)
IC50 [3]: > 99 µM (inactive)

O=C(c1cccc(C(=O)N2CCN(c3ccc(F)cc3)CC2)c1)N1CCN(c2ccc(F)cc2)CC1
CC50 [4]: > 40 µM (active)
EC50 [5]: 0.841 µM (active)

CN1CCc2nc(SCC(=O)Nc3ccc(Cl)cc3)c(C#N)cc2C1
EC50 [6]: > 50 µM (active)

Cn1cc([N+](=O)[O-])c(C(=O)Nc2nc(-c3ccc(Cl)cc3)cs2)n1
AC50 [7]: 10.5 µM (active)
EC50 [8]: 0.523 µM (active)
EC50 [9]: 0.596 µM (active)
EC50 [10]: 3.8 µM (active)

Cc1nc2cc(NC(=O)COc3ccccc3C#N)ccc2n1-c1ccccc1
IC50 [11]: 3.45 µM (active)
IC50 [12]: 1.61 µM (active)
IC50 [13]: > 49.7 µM (inactive)
IC50 [14]: > 66.2 µM (inactive)

Cc1c(C(=O)N2CCN(Cc3ccccc3)CC2)sc2ncnc(N3CCOCC3)c12
EC50 [6]: > 50 µM (active)

FC(F)(F)c1cc(-c2cccs2)nc(-n2cc(Br)cn2)n1
IC50 [15]: > 100 µM (inactive)
Absolute IC50 (CHOP) [16]: 10 µM

COc1ccc2c(c1)c(=O)oc1c(C)c(OCc3ccc(C(=O)O)cc3)ccc12
IC50 [17]: 14.4 µM (active)
IC50 [18]: > 20 µM (inactive)
EC50 [19]: > 20 µM (inactive)
IC50 [20]: 2.01 µM (active)
IC50 [21]: > 20 µM (inactive)
EC50 [22]: > 20 µM (inactive)
IC50 [23]: > 20 µM (inactive)

CCc1ccc(OCCNC(=O)c2ccccc2SCc2ccccc2)cc1
Absolute IC50 (CHOP) [16]: 10 µM

CCN1C(NCCc2ccccn2)=N[C@@H](c2cccc(F)c2)C(C(=O)OC)=C1C
IC50 [24]: > 100 µM (inactive)
IC50 [25]: 13.4 µM (active)

COc1ccc(C2=NN(C(=O)c3ccco3)C(c3cc4ccccc4nc3Cl)C2)cc1 (stereo not given)
Absolute IC50 (CHOP) [16]: 10 µM

COC(=O)c1cc2oc(C)cc2n1CC(=O)Nc1ccc(C)c(C)c1
EC50 [6]: > 50 µM (active)

Cc1cc(C)nc(N=C(N)Nc2ccc(F)c([N+](=O)[O-])c2)n1
IC50 [11]: 15.1 µM (inactive)
IC50 [12]: 10.1 µM (inactive)
IC50 [13]: 17.8 µM (inactive)
IC50 [14]: 11.6 µM (inactive)

Cc1cccc(N2CCN(C(=O)Cn3sc4nc(C)cc(C)c4c3=O)CC2C)c1 (stereo not given)
IC50 [1]: > 50 µM (inactive)
EC50 [8]: 17 µM (active)
EC50 [9]: 17 µM (active)
IC50 [2]: 16.7 µM (active)
IC50 [26]: 23.8 µM (active)
IC50 [27]: 18.1 µM (active)
CC50 [28]: > 40 µM (active)

CCn1nc(NC(C)=O)c2cc3cccc(C)c3nc21
IC50 [24]: > 100 µM (inactive)
IC50 [25]: 7.59 µM (active)

O=C(NC(Cc1ccccc1)c1nc2ccccc2[nH]1)C1CC(=O)N(c2ccc3c(c2)OCCO3)C1 (stereo not given)
IC50 [24]: 56.2 µM (active)
IC50 [25]: 8.72 µM (active)
IC50 [20]: 41.4 µM (active)
